The target of the first assay is human α5β3γ2 receptors (α5-GABAA receptor) (Homo sapiens (Human), UniProt P18507+P31644). Kind of assay: 3H-flunitrazepam competition binding, human α5β3γ2 GABAA receptor. The following applies: HEK293 cell membranes, 1 nM 3H-flunitrazepam; read-out: α5-GABAAR Ki. Here is the method:
The affinity of the compound to each subtype of GABAA receptor was determined by competing for the binding of ^3H-flunitrazepam to HEK293 cells stably expressing human α1β3γ2, α2β3γ2, α3β3γ2, and α5β3γ2 receptors.
The cells were suspended in 50 mM Tris-HCl buffer (pH=7.4), homogenized 10 times on ice with a homogenizer for 20 seconds, and centrifuged at 1000 g for 10 minutes at 4° C. The supernatant was collected, and the above steps were repeated. The supernatant was centrifuged at 4° C. (33800 g; Thermo, rotor: A27-8×50) for 60 minutes, and the precipitate was resuspended in Tris buffer (50 mM Tris-HCl, 10 mM MgCl2, 0.5 mM EDTA, 10% glycerol). Protein was measured (BCA method, Pierce), and 1 mL aliquots were prepared and stored at −80° C.
The radioligand competition binding assay was performed in a 200 μL system (96-well plate) containing 100 μL of cell membrane. The concentration of ^3H-flunitrazepam was 1 nM and the concentration of the test compound was in the range of […]. Flumazenil was used as a control. 1 μL of 2 mM flumazenil (final concentration […]) was added to the low signal control well (Low control, LC), and 1 μL of DMSO was added to the high signal control well (High control, HC). The final concentration of target membrane protein was […]. All test compound sample storage solutions were 10 mM. The working concentration of the samples was to dilute all the samples to 0.2 mM with DMSO, followed by 4-fold serial gradient dilutions for a total of 8 concentration gradients. The 96-well plate was sealed with a sealing film, and then incubated on a shaker at room temperature for 1 hour. At the same time, the GF/C filter plate was soaked in soaking buffer (0.3% PEI, stored at 4° C.) for at least 0.5 hours. After the binding incubation was completed, the cells were collected onto a GF/C filter plate using a cell harvester. The plate was washed four times with washing buffer (50 mM Tris-HCl, pH 7.4, stored at 4° C.). After drying in a 50° C. oven for 1 hour, the bottom of the dried GF/C filter plate was sealed. The residual radioactivity on the filter membrane was detected using liquid scintillation counting. 50 μL of scintillation fluid was added to each well, and the plate was sealed. The readings were taken using a Microbeta2. The inhibitory activity of the test sample on the binding of ^3H-flunitrazepam to GABAA receptor membrane proteins was calculated, and the IC50 of each test sample was calculated by dose-effect curve fitting (GraphPad Prism 5 software), and the Ki of the sample was calculated from the IC50, thus evaluating the binding ability of the sample to the various subtypes of GABAA receptors.
Take `Cc1nnn(-c2ccc(F)cc2)c1COc1ccc(N2CCN3CCOC[C@@H]3C2)nn1` [Example 126, (S)-8-(6-((1-(4-Fluorophenyl)-4-methyl-1H-1,2,3-triazol-5-yl)methoxy)pyridazin-3-yl)octahydropyrazino[2,1-c][1,4]oxazine]: the Ki (in general, the dissociation constant of the complex between target and ligand, obtained from inhibition or displacement) was 40.1 nM. On to `COc1cc(OCc2c(C)nnn2-c2ccc(C(F)F)cc2)nnc1N1CCNC(=O)C1` [Example 135, 4-(6-((1-(4-(Difluoromethyl)phenyl)-4-methyl-1H-1,2,3-triazol-5-yl)methoxy)-4-methoxypyridazin-3-yl)piperazin-2-one], for which the Ki came to 1.05 nM. Consider `Cc1nnn(-c2ccc(C(F)F)cc2)c1COc1nnc(N2CCNC(=O)C2)c2ncccc12` [Example 137, 4-(5-((1-(4-(Difluoromethyl)phenyl)-4-methyl-1H-1,2,3-triazol-5-yl)methoxy)pyrido[2,3-d]pyridazin-8-yl)piperazin-2-one], for which the Ki worked out at 0.49 nM. On to `Cc1nnn(-c2ccc(C(F)F)cc2)c1COc1ccc(N2CCN(CCn3cccn3)C(=O)C2)nn1` [Example 138, 1-(2-(1H-Pyrazol-1-yl)ethyl)-4-(6-((1-(4-(difluoromethyl)phenyl)-4-methyl-1H-1,2,3-triazol-5-yl)methoxy)pyridazin-3-yl)piperazin-2-one], for which the Ki came out at 2.11 nM. Regarding `COCCCN1CCN(c2ccc(OCc3c(C)nnn3-c3ccc(C(F)F)cc3)nn2)CC1=O` [Example 140, 4-(6-((1-(4-(Difluoromethyl)phenyl)-4-methyl-1H-1,2,3-triazol-5-yl)methoxy)pyridazin-3-yl)-1-(3-methoxypropyl)piperazin-2-one], the Ki was 1.41 nM. In the case of `Cc1nnn(-c2ccc(C(F)F)cc2)c1COc1ccc(N2CCN(C3CN(C(C)C)C3)C(=O)C2)nn1` [Example 142, 4-(6-((1-(4-(Difluoromethyl)phenyl)-4-methyl-1H-1,2,3-triazol-5-yl)methoxy)pyridazin-3-yl)-1-(1-isopropylazetidin-3-yl)piperazin-2-one], the Ki turned out to be 1.8 nM. Regarding `Cc1nnn(-c2ccc(C(F)F)cc2)c1COc1ccc(N2CCN(CCCc3ccc(Cl)cc3)C(=O)C2)nn1` [Example 144, 1-(3-(4-Chlorophenyl)propyl)-4-(6-((1-(4-(difluoromethyl)phenyl)-4-methyl-1H-1,2,3-triazol-5-yl)methoxy)pyridazin-3-yl)piperazin-2-one], the Ki stood at 1.63 nM.

Turning to `COc1cnccc1NC(=O)C1CN(c2ccc(OCc3c(C)nnn3-c3ccc(C(F)F)cc3)nn2)C1` [Example 149, 1-(6-((1-(4-(Difluoromethyl)phenyl)-4-methyl-1H-1,2,3-triazol-5-yl)methoxy)pyridazin-3-yl)-N-(3-methoxypyridin-4-yl)azetidine-3-carboxamide], the Ki was determined as 2.04 nM. In the case of `Cc1nnn(-c2ccc(C(F)F)cc2)c1COc1ccc(N2CC(C(=O)Nc3cnn(C(C)C)c3)C2)nn1` [Example 150, 1-(6-((1-(4-(Difluoromethyl)phenyl)-4-methyl-1H-1,2,3-triazol-5-yl)methoxy)pyridazin-3-yl)-N-(1-isopropyl-1H-pyrazol-4-yl)azetidine-3-carboxamide], the Ki was determined as 2.35 nM. For `Cc1nnn(-c2ccc(C(F)F)cc2)c1COc1ccc(N2CC(C(=O)Nc3cccnc3F)C2)nn1` [Example 151, 1-(6-((1-(4-(Difluoromethyl)phenyl)-4-methyl-1H-1,2,3-triazol-5-yl)methoxy)pyridazin-3-yl)-N-(2-fluoropyridin-3-yl)azetidine-3-carboxamide], the Ki stood at 1.36 nM. For the molecule `COc1cccnc1NC(=O)C1CN(c2ccc(OCc3c(C)nnn3-c3ccc(C(F)F)cc3)nn2)C1` [Example 152, 1-(6-((1-(4-(Difluoromethyl)phenyl)-4-methyl-1H-1,2,3-triazol-5-yl)methoxy)pyridazin-3-yl)-N-(3-methoxypyridin-2-yl)azetidine-3-carboxamide], the Ki was found to be 1.65 nM.

On to `Cc1nnn(-c2ccc(C(F)F)cc2)c1COc1ccc(N2CC(C(=O)Nc3cnn(C(F)F)c3)C2)nn1` [Example 153, N-(1-(Difluoromethyl)-1H-pyrazol-4-yl)-1-(6-((1-(4-(difluoromethyl)phenyl)-4-methyl-1H-1,2,3-triazol-5-yl)methoxy)pyridazin-3-yl)azetidine-3-carboxamide], for which the Ki amounted to 1.89 nM. With `Cc1nnn(-c2ccc(C(F)F)cc2)c1COc1ccc(N2CC(C(=O)N3CCOC(C)(C)C3)C2)nn1` [Example 158, (1-(6-((1-(4-(Difluoromethyl)phenyl)-4-methyl-1H-1,2,3-triazol-5-yl)methoxy)pyridazin-3-yl)azetidin-3-yl)(2,2-dimethylmorpholino)methanone], the Ki stood at 4.31 nM.

Take `COCc1ccc(-n2nnc(C)c2COc2ccc(N3CCN4CCNC(=O)[C@@H]4C3)nn2)cc1` [Example 161, (S)-8-(6-((1-(4-(Methoxymethyl)phenyl)-4-methyl-1H-1,2,3-triazol-5-yl)methoxy)pyridazin-3-yl)hexahydro-2H-pyrazino[1,2-a]pyrazin-1(6H)-one]: the Ki was determined as 13.8 nM. In the case of `Cc1nnn(-c2ccc(Cl)cc2)c1COc1ccc(N2CCNC(=O)C2)nn1` [Example 164, 4-(6-((1-(4-Chlorophenyl)-4-methyl-1H-1,2,3-triazol-5-yl)methoxy)pyridazin-3-yl)piperazin-2-one], the Ki came to 2.4 nM. Turning to `Cc1nnn(-c2ccc(C(F)F)cc2F)c1COc1ccc(N2CCNC(=O)C2)nn1` [Example 167, 4-(6-((1-(4-(Difluoromethyl)-2-fluorophenyl)-4-methyl-1H-1,2,3-triazol-5-yl)methoxy)pyridazin-3-yl)piperazin-2-one], the Ki was found to be 1.08 nM.

For the molecule `Cc1nnn(-c2ccc(C(F)F)cc2)c1COc1ccc(C2CCNC(=O)C2)cn1` (stereo not drawn) [Example 170, 4-(6-((1-(4-(Difluoromethyl)phenyl)-4-methyl-1H-1,2,3-triazol-5-yl)methoxy)pyridin-3-yl)piperidin-2-one], the Ki is 2.3 nM. Turning to `CCNC(=O)C1=CCCN(c2ccc(OCc3c(C)nnn3-c3ccc(C(F)F)cc3)nn2)C1` [Example 172, 1-(6-((1-(4-(Difluoromethyl)phenyl)-4-methyl-1H-1,2,3-triazol-5-yl)methoxy)pyridazin-3-yl)-N-ethyl-1,2,5,6-tetrahydropyridine-3-carboxamide], the Ki amounted to 0.67 nM. As to `Cc1nnn(-c2ccc(C(F)F)cc2)c1COc1ccc(N2CC(=O)N3CCOC[C@@H]3C2)nn1` [Example 174, (S)-8-(6-((1-(4-(Difluoromethyl)phenyl)-4-methyl-1H-1,2,3-triazol-5-yl)methoxy)pyridazin-3-yl)hexahydropyrazino[2,1-c][1,4]oxazin-6(1H)-one], the Ki amounted to 1.39 nM. As for `Cc1nnn(-c2ccc(C(F)F)cc2)c1COc1ccc(N2CC(=O)N3CCS(=O)(=O)C[C@H]3C2)nn1` [Example 175, (R)-8-(6-((1-(4-(Difluoromethyl)phenyl)-4-methyl-1H-1,2,3-triazol-5-yl)methoxy)pyridazin-3-yl)hexahydropyrazino[2,1-c][1,4]thiazin-6(1H)-one 2,2-dioxide], the Ki was determined as 2.63 nM.

The assay is the same for the next values; noted with them: α5-GABAAR Ki, HEK293 cell membranes, 1 nM 3H-flunitrazepam.
`CCNC(=O)C12CC(CN(c3ccc(OCc4c(C)nnn4-c4ccc(C(F)F)cc4)nn3)C1)C2` [Example 121, 3-(6-((1-(4-(Difluoromethyl)phenyl)-4-methyl-1H-1,2,3-triazol-5-yl)methoxy)pyridazin-3-yl)-N-ethyl-3-azabicyclo[3.1.1]heptane-1-carboxamide] came in with a Ki of 1.73 nM.

These data come from patent publication US20250136581A1, “SUBSTITUTED TRIAZOLE DERIVATIVE, PREPARATION METHOD THEREFOR, PHARMACEUTICAL COMPOSITION THEREOF, AND USE THEREOF” (SHANGHAI SIMR BIOTECHNOLOGY CO., LTD., priority 2021, published 2025).
